Measured values published in US6706289B2, “Methods and compositions for enhanced delivery of bioactive molecules” (priority 2000, dated 2004).
Where two headings read alike, the source gives them in different places.

Columns and labels:
[1] = assay type: physicochemical
Procedure: (§1) Core loading measurement of the microspheres was done by dissolving 10 mg of microspheres in 50% acetonitrile followed by centrifugation to pellet the insoluble polymer. Aliquots were analyzed by RP-HPLC and compared to representative standards prepared in 50% acetonitrile. […] The suspensions were vortexed and incubated at 37° C. After 1 hour, aliquots were removed, filtered and analyzed for the amount released by RP-HPLC.

[2] = Mean particle size of microparticles estimated from SEM; assay type: physicochemical
[3] = Initial release at 1 h, in vitro dissolution of microparticles; assay type: physicochemical; details: Monophase microparticles; PBS (50 mM, pH 7.2), 0.02% Tween 20, 25% EtOH, 37° C.
Procedure: as §1

[4] = test system: normal rats; assay: Hypoglycemic effect: blood glucose levels after subcutaneous administration; assay type: in vivo
Procedure: PEG-Insulin PLGA microspheres and an equivalent dose of free insulin were administered subcutaneously to normal rats. Blood was drawn periodically and anticoagulated. Blood glucose levels were measured by standard tests.

[5] = Double-emulsion (w1/o/w2) PLGA microparticles

Row | Compound | CL—Coreload (wt % of active in microparticle as isolated) [1, 5] | CL—Coreload (wt % of active in microparticle as isolated) ([1]; Monophase PLGA microparticles) | PS—Mean Particle Size (estimated from SEM) [2, 5] | PS—Mean Particle Size (estimated from SEM) ([2]; Monophase PLGA microparticles) | EE—Encapsulation Efficiency (% of active encapsulated in process) [1, 5] | EE—Encapsulation Efficiency (% of active encapsulated in process) ([1]; Monophase PLGA microparticles) | IR—Initial Release at 1 h from in vitro dissolution [3] | % BGL (glucose normalized to a percentage of basal levels) ([4]; Time 0 hr) | % BGL (glucose normalized to a percentage of basal levels) ([4]; Time 1 hr) | % BGL (glucose normalized to a percentage of basal levels) ([4]; Time 2 hr) | % BGL (glucose normalized to a percentage of basal levels) ([4]; Time 4 hr) | % BGL (glucose normalized to a percentage of basal levels) ([4]; Time 6 hr) | % BGL (glucose normalized to a percentage of basal levels) ([4]; Time 8 hr) | % BGL (glucose normalized to a percentage of basal levels) ([4]; Time 12 hr) | size range of resulting microspheres ([2]; PLGA microspheres (w/o/w), collected on 25 micron sieve)
1 | Insulin: recombinant human insulin; PLGA microparticles of Examples 14 and 16 | 0.23% | 0.6% | 100-350 μm | 30-100 μm | – | – | – | – | – | – | – | – | – | – | –
2 | C[C@@H](NC(=O)[C@@H](N)Cc1ccc(O)cc1)C(=O)NCC(=O)N[C@@H](Cc1ccccc1)C(=O)NNC(=O)[C@H](Cc1ccccc1)NC(=O)CNC(=O)[C@@H](C)NC(=O)[C@@H](N)Cc1ccc(O)cc1 [Biphalin] | 0.24% | 0.36% | 50-250 μm | 20-100 μm | 14.28% | 3.64% | 49.4% | – | – | – | – | – | – | – | –
3 | PEG-Insulin: Human insulin covalently modified with polyethylene glycol, mPEG(5000)-SPA; PLGA microparticles of Examples 15 and 17 | – | – | 50-250 μm | 50-100 μm | – | – | – | 100% | 111.1% | 86.5% | 97% | 98.5% | 82% | 88.8% | –
4 | pegylated GM-CSF: GM-CSF conjugated to tresyl-monomethoxy-polyethylene glycol (MW=5000 daltons); paper example | – | – | – | – | – | – | – | – | – | – | – | – | – | – | 25-200 μm
